Laboratory results as given in patent publication US9181182B2, “S1P receptors modulators” (Akaal Pharma PTY LTD, priority 2008, dated 2015).
Counter-ions that a name gives are not always drawn.

Assays:
[1] = system: Human promyelocytic leukemia (HL-60) cells; assay: Cell viability (growth inhibition) assay, MTS; assay type: cell-based; conditions: 50% reduction in cell viability of HL-60 cells, 48 hr incubation
Description: In order to measure the apoptotic effect of compounds on the metabolic activity of viable cells, the following assay was performed on Human promyelocytic leukemia cells. The assay utilises the tetrazolium compound (3-(4,5-dimethylthiazol-2-yl)-5-(3-carboxymethoxyphenyl)-2-(4-sulfophenyl)-2H-tetrazolium, inner salt; (MTS) and an electron coupling reagent (phenazine methosulfate; (PMS). MTS is bioreduced by cells into a formazan product the optical absorbance of which is measured directly from 96 well assay plates. The conversion of MTS into aqueous, soluble formazan is accomplished by dehydrogenase enzymes found in metabolically active cells. The quantity of formazan product as measured by the amount of 490 nm absorbance is directly proportional to the number of living cells in culture.
The assay was based on the National Cancer Institute (NCI) protocol, briefly, cells were grown in RPMI 1640 media supplemented with 10% FCS (foetal calf serum) and kept at 37° C. in a humidified environment with 5% CO2.
For the growth inhibition assay, Human promyelocytic leukemia (HL-60) cells were seeded at a density of 10,000 cells per well in 96 well plates in a volume of 100 μl and allowed to grow for 24 h. Compounds were serially diluted in DMSO at concentrations 100 fold higher than used in the assay (100×). Compounds were freshly prepared for each experiment. The 100× stocks were then diluted to 2× stocks into media and immediately, 100 μl of this 2× stock was added to the cells to create the desired final concentration of drug with a DMSO concentration of 1%. One row of each 96 well plate was treated with DMSO alone as a control. Cells were then incubated for a further 48 hr. Metabolic activity was determined using MTS (Promega) (90% 1.6 mg/ml MTS, 10% 1.6 mg/ml PMS (phenazine methosulfate) made fresh in PBS). 50 μl of this mix was added to all wells of the plates and allowed to incubate for 1.5-2 hr. Plates were shaken gently for about 15 min and absorbance was read on a plate reader at 490 nm. Averages were taken of the readings at each point with standard deviation and plotted using MicroCal Origin.

[2] = biological target: S1P1 human receptor (Homo sapiens (Human), UniProt P21453); assay: S1P1 [35S]-GTPgamaS binding assay (agonist activity); assay type: biochemical; conditions: for EC50S1P1/EC50S1P: potency at S1P1 relative to S1P; for EC50: GTPgamaS binding, agonist; for Efficacy (% of maximum): S1P1, relative to reference agonist S1P
Chain of S1P1 human receptor (P21453 whole entry): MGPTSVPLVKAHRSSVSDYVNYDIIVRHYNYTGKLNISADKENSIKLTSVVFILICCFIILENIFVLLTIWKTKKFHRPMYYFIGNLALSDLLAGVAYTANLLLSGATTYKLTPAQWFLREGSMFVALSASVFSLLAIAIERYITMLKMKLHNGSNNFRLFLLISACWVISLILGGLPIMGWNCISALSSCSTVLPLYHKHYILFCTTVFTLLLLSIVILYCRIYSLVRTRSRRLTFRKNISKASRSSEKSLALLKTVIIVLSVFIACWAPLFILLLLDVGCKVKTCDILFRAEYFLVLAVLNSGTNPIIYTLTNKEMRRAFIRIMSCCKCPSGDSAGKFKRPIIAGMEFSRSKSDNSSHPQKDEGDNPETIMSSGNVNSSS
Description: Selected Compounds of the Examples were evaluated at Millipore Corporation, USA, using S1P1 receptor; [^35S]-GTPgamaS binding assay. A [^35S]-GTPgamaS binding assay at Millipore was conducted by GPCR Profiler™ Custom Service Laboratory, Temecula, Calif., Millipore, Inc. to monitor dose-dependent agonist selectivity for selected Examples against the S1P1 receptors. The assay was completed with sample compounds subjected to an eight-point, four-fold dose response curve with starting concentration of 10 μM. Selectivity was determined upon initial addition of compounds followed by a 30 minute incubation at 30° C. Following compound incubation, bounded [^35S]-GTPgamaS was determined by filtration and scintillation counting.
Independently, selected compounds were evaluated for S1P1 and S1P3 agonistic activity. The S1P1 assay system was GTPgama-S35 binding in membranes from CHO K1 cells, expressing S1P1 human receptor. The S1P3 assay system was calcium mobilization in CHO K1 cells expressing S1P3 human receptor. […] Compounds were tested initially at a concentration of 10 μM.

Row | Compound | IC50 [1] [µM] | EC50S1P1/EC50S1P [2] | IC50 ([1]; Homo sapiens) [µM] | EC50 [2] [µM] | Efficacy (% of maximum) [2] [%]
1 | 2-Amino-2-((5-(5-3-(1-admantyl)-3-methoxyphenyl)-1,2,4-oxadiazol-3-yl)indolin-1-yl)methyl)propane-1,3-diol [Example 33] | 2.91 ± 0.13 | >1000 | – | – | –
2 | NC(CO)(CO)CN1CCc2c(OCc3cc4c(Cl)cc(Cl)cc4o3)cccc21 [41(a), 2-Amino-2-((4-((4,6-dichlorobenzofuran-2-yl)methoxy)indolin-1-yl)methyl)propane-1,3-diol] | – | 144.46 | 2.55 ± 0.78 | > 1.36 | 42
3 | CCCCCCCCc1ccc2c(c1)CN(CC(N)(CO)CO)C2 [Example 2, 2-Amino-2-((5-octylisoindolin-2-yl)methyl)propane-1,3-diol] | – | 593 | 3.48 ± 0.14 | 1.56 | 91
4 | CCCCCCCCc1ccc2c(c1)CCN2CC(N)(CO)CO [Example 3, 2-Amino-2-((5-octylindolin-1-yl)methyl)propane-1,3-diol] | – | 709 | 3.7 ± 1.02 | 2.11 | 73
5 | CCCCCCCCc1ccc2c(ccn2CC(N)(CO)CO)c1 [Example 4, 2-Amino-2-((5-octyl-1H-indol-1-yl)methyl)propane-1,3-diol] | – | – | 3.58 ± 0.04 | – | –
6 | CCCCCCCCc1ccc2c(c1)C(=O)C(=O)N2CC(N)(CO)CO [Example 5, 1-(2-Amino-3-hydroxy-2-(hydroxymethyl)propyl)-5-octylindoline-2,3-dione] | – | – | 5.72 ± 2.18 | – | –
7 | COc1cc(CCc2ccc3c(c2)CCN3CC(N)(CO)CO)cc(OC)c1OC [Example 6, 2-Amino-2-((5-(3,4,5-trimethoxyphenethyl)indolin-1-yl)methyl)propane-1,3-diol] | – | – | 44.9 ± 8.85 | – | –
8 | COc1ccc(-c2nc(-c3ccc4c(c3)CCN4CC(N)(CO)CO)no2)cc1Cl [Example 7, 2-Amino-2-((5-(5-(3-chloro-4-methoxyphenyl)-1,2,4-oxadiazol-3-yl)indolin-1-yl)methyl)propane-1,3-diol] | – | 278 | 3.07 ± 0.46 | 0.783 | 109
9 | NC(CO)(CO)CN1CCc2cc(OCc3cc4c(Cl)cc(Cl)cc4o3)ccc21 [Example 8, 2-Amino-2-((5-((4,6-dichlorobenzofuran-2-yl)methoxy)indolin-1-yl)methyl) propane-1,3-diol] | – | 23 | 1.93 ± 0.58 | 0.131 | 85
10 | CCCCCCCCc1ccc2c(c1)CCCN2CC(N)(CO)CO [Example 9, 2-Amino-2-((6-octyl-3,4-dihydroquinolin-1(2H)-yl)methyl)propane-1,3-diol] | – | >1000 | 2.46 ± 0.51 | > 0.86 | –
11 | CCCCCCCCc1ccc2c(c1)CCN(CC(N)(CO)CO)C2 [Example 10, 2-Amino-2-((6-octyl-3,4-dihydroisoquinolin-2(1H)-yl)methyl)propane-1,3-diol] | – | >1000 | 1.38 ± 0.17 | > 0.51 | –
12 | NC(CO)(CO)CCc1ccc(CCCn2cc(C(=O)C(F)(F)F)c3ccccc32)cc1 [Example 11, 1-(1-(3-(4-(3-amino-4-hydroxy-3-(hydroxymethyl)butyl)phenyl)propyl)-1H-indol-3-yl)-2,2,2-trifluoroethanone] | – | – | 5.54 ± 2.3 | – | –
13 | COc1ccc2c(C(=O)c3cc(OC)c(OC)c(OC)c3)cn(S(=O)(=O)c3ccc(CCC(N)(CO)CO)cc3)c2c1 [Example 13, (1-(4-(3-Amino-4-hydroxy-3-(hydroxymethyl)butyl)phenylsulfonyl)-6-methoxy-1H-indol-3-yl)(3,4,5-trimethoxyphenyl)methanone] | – | – | 0.44 ± 0.04 | – | –
14 | Cc1ccc(-c2ccc(CCC(N)(CO)CO)cc2)cc1 [Example 18, 2-Amino-2-(2-(4′-methylbiphenyl-4-yl)ethyl)propane-1,3-diol] | – | – | 7.07 ± 0.23 | – | –
15 | COc1cc(CCc2cccc(CCC(N)(CO)CO)c2)cc(OC)c1OC [Example 21, 2-Amino-2-(3-(3,4,5-trimethoxyphenethyl)phenethyl)propane-1,3-diol] | – | – | 28.5 ± 3.21 | – | –
16 | NC(CO)(CO)CCc1ccc(O)c(C23CC4CC(CC(C4)C2)C3)c1 [Example 22, 2-Amino-2-(3-(admantyl)-4-hydroxyphenethyl)propane-1,3-diol hydrochloride salt] | 10.5 ± 0.4 | – | – | – | –
17 | CC1(C)C2CCC(CCOc3ccc(CCC(N)(CO)CO)cc3)C1C2.Cl (stereo not shown) [Example 23, 2-Amino-2-(4-(2-(6,6-dimethylbicyclo[3.1.1]heptan-2-yl)ethoxy)phenethyl) propane-1,3-diol hydrochloride salt] | – | 419 | 2.26 ± 0.68 | 1.24 | 72
18 | COc1ccc(CCc2ccc(CCC(N)(CO)CO)cc2)cc1C12CC3CC(CC(C3)C1)C2 [Example 26, 2-Amino-2-(4-(3-(1-admantanyl-4-methoxyphenethyl)phenethyl)propane-1,3-diol hydrochloride salt] | 2.29 ± 0.57 | – | – | – | –
19 | CC(C)Oc1ccc(CCC(N)(CO)CO)cc1C12CC3CC(CC(C3)C1)C2 [Example 28, 2-Amino-2-(3-1-admantanyl-4-isopropoxyphenethyl)propane-1,3-diol hydrochloride salt] | 1.56 ± 0.37 | – | – | – | –
20 | Cc1ccc(OCCCc2ccc(CCC(N)(CO)CO)cc2)c(C23CC4CC(CC(C4)C2)C3)c1 [Example 29, 2-Amino-2-(4-(3-(2-(1-admanynyl)-4-methylphenoxy)propyl)phenethyl) propane-1,3-diol hydrochloride salt] | 3.94 ± 0.4 | – | – | – | –
21 | COc1ccc(-c2nc(-c3ccc4c(c3)CCN4CC(N)(CO)CO)no2)cc1C12CC3CC(CC(C3)C1)C2 [Example 30] | 3.19 ± 0.26 | >1000 | – | > 55.4 | –
22 | CCCCCCCCc1ccc(CNCC(N)(CO)CO)cc1 [Example 31, 2-Amino-2-((4-octylbenzylamino)methyl)propane-1,3-diol] | – | – | > 10 | – | –
23 | CCOc1ccc(-c2nc(-c3cccc4c3ccn4CC(N)(CO)CO)no2)cc1OCC [Example 35, 2-Amino-2-((4-(5-(3,4-diethoxyphenyl)-1,2,4-oxadiazol-3-yl)-1H-indol-1-yl)methyl)propane-1,3-diol] | – | 4.75 | 1.7 ± 0.1 | 0.054 | 106
24 | NC(CO)(CO)CN1CCc2cc(OCc3cccc(F)c3)ccc2C1 [Example 37, 2-Amino-2-((6-(3-fluorobenzyloxy)-3,4-dihydroisoquinolin-2(1H)-yl)methyl)propane-1,3-diol] | – | – | 26.9 ± 9.16 | – | –
25 | NC(CO)(CO)CN1CCc2cc(CCc3ccc(-c4ccccc4C(F)(F)F)cc3)ccc21 [Example 59, 2-Amino-2-((5-(2-(2′-(trifluoromethyl)biphenyl-4-yl)ethyl)indolin-1-yl)methyl)propane-1,3-diol] | – | >1000 | – | > 2.13 | –
26 | CC(C)Oc1ccc(CCN(C)CC(N)(CO)CO)cc1C12CC3CC(CC(C3)C1)C2 [Example 60, 2-Amino-2-(((3-(1-admantyl)-4-isopropoxyphenethyl)(methyl)amino)methyl)propane-1,3-diol] | 3.3 ± 0.26 | – | – | – | –
27 | CC(C)Oc1cc2c(cc1C13CC4CC(CC(C4)C1)C3)CN(CC(N)(CO)CO)CC2 [Example 61, 2-Amino-2-((7-(1-admantyl)-6-isopropoxy-3,4-dihydroisoquinolin-2(1H)-yl)methyl)propane-1,3-diol] | 3.27 ± 0.12 | – | – | – | –
28 | NC(CO)(CO)CN1CCC2CCCCC2C1 (stereo not shown) [Example 62, 2-Amino-2-((octahydroisoquinolin-2(1H)-yl)methyl)propane-1,3-diol] | – | – | > 100 | – | –
29 | NC(CO)(CO)CCc1ccc(-c2ccc(O)c(C34CC5CC(CC(C5)C3)C4)c2)cc1 [Example 64, 2-Amino-2-(2-(3′-(1-admantyl)-4′-hydroxybiphenyl-4-yl)ethyl)propane-1,3-diol hydrochloride salt] | 3.44 ± 0.12 | – | – | – | –
